Data reported in article PMC11859916, “Design, Synthesis, and Biological Evaluation of a Novel [^18F]AlF-H3RESCA-FAPI Radiotracer Targeting Fibroblast Activation Protein” (Pharmaceuticals, 2025).

Key:
[1] = target: T1, recombinant human FAP protein (Homo sapiens, UniProt Q12884); test: Biacore SPR binding affinity measurement; settings: read-out: KD (equilibrium dissociation constant)
T1 construct: purchased Sino Biological Inc., Beijing, China 10464-H07H
T1 sequence (Q12884 1-760): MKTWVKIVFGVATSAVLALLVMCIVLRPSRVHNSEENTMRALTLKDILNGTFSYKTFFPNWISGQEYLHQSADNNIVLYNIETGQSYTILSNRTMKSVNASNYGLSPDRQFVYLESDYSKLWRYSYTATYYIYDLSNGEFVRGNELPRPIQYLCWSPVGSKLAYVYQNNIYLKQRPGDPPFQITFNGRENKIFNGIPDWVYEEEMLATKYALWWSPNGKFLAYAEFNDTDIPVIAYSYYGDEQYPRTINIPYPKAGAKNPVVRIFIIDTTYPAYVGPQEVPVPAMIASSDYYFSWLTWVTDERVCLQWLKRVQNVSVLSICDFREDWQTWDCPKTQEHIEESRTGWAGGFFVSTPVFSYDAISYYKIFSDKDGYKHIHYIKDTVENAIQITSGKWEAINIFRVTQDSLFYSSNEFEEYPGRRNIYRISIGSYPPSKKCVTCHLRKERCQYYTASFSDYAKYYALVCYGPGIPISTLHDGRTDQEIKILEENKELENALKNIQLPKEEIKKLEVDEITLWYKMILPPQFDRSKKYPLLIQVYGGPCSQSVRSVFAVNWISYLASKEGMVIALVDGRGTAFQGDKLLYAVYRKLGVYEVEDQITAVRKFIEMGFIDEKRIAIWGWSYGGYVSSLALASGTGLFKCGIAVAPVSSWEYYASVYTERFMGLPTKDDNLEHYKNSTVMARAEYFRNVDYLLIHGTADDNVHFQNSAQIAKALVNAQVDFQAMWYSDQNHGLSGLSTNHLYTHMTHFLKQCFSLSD
Description: In order to determine the binding kinetics between ligands and human FAP protein (10464-H07H, Sino Biological Inc., Beijing, China), the Biacore SPR interaction study was conducted. The binding affinity is expressed by the equilibrium dissociation constant (KD) (M), which is calculated from the values of the measured binding rate constant (ka) (M^−1 s^−1) and dissociation rate (kd) (s^−1).

[2] = Octanol-water partition coefficient (n-octanol/PBS); format: physicochemical; settings: n-octanol/PBS 1:1, ambient temperature
Description: Radiotracers [^68Ga]Ga-DOTA-FAPI-04 and [^18F]AlF-H3RESCA-FAPI (0.37 MBq, about 50 µL) were added to tubes containing n-octanol/PBS mixture (1 mL, 1:1). The mixture was vortexed vigorously for 5 min at ambient temperature and then centrifuged for five min at 8000 rpm. In each phase, three samples (each 50 µL) were removed and measured in γ-counter (PerkinElmer). The partition coefficient was expressed as an equation as follows:(1) LogD7.4=LogCPM(n−octanol)/CPM(PBS)

Kd [1]	logD7.4 (octanol-water partition coefficient) [2]	SMILES
< 0.0101 nM		N#C[C@@H]1CC(F)(F)CN1C(=O)CNC(=O)c1ccnc2ccc(OCCCN3CCN(C(=O)Cc4ccc(CN(CC(=O)O)[C@@H]5CCCC[C@H]5N(CC(=O)O)CC(=O)O)cc4)CC3)cc12 [H3RESCA-FAPI, 2,2′-(((1R,2R)-2-((carboxymethyl)(4-(2-(4-(3-((4-((2-((S)-2-cyano-4,4-difluoropyrrolidin-1-yl)-2-oxoethyl)carbamoyl)quinolin-6-yl)oxy)propyl)piperazin-1-yl)-2-oxoethyl)benzyl)amino)cyclohexyl)azanediyl)diacetic acid]
	−3.53 ± 0.05	N#C[C@@H]1CC(F)(F)CN1C(=O)CNC(=O)c1ccnc2ccc(OCCCN3CCN(C(=O)CN4CCN(CC(=O)[O-])CCN(CC(=O)O)CCN(CC(=O)[O-])CC4)CC3)cc12.[68Ga+3] [[^68Ga]Ga-DOTA-FAPI-04]
